The target in one assay is NaV1.7 (Homo sapiens, UniProt Q15858). The experiment in a line: Sodium channel selectivity, NaV1.7. Format: cell-based. Conditions: read-out: EC50 against NaV1.7.
For the next assay, the target named is T1, hTRAAK (Homo sapiens, UniProt Q9NYG8).
T1 construct: expressed in transfected cells; host or cells: tsA-201, transient, pcDNA3.1 vector
T1 sequence (Q9NYG8 1-393): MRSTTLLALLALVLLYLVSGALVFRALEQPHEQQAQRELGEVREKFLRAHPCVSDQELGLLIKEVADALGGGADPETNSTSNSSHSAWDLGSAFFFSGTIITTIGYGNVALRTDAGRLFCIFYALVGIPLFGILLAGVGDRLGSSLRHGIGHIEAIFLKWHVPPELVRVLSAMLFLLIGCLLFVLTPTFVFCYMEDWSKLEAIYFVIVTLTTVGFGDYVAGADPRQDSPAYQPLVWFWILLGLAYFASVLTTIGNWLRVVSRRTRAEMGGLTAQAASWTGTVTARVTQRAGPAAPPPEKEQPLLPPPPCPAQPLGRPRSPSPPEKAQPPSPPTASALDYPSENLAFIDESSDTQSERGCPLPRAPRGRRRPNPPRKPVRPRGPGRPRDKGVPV
The experiment in a line: Whole-cell patch clamp, transiently transfected tsA-201 cells, TRAAK. The format is cell-based. How it is done:
Recordings of hTREK1, hTREK1∆N, hTREK2, hTRAAK and […] currents from transiently transfected tsA‐201 cells were performed using methods as described in Veale and Mathie (2016). Briefly, the pcDNA3.1 vector was cloned with the gene of interest, and these vectors and a similar vector containing GFP were incorporated into the tsA201 cells (0.5 μg per well) using the calcium phosphate method. The cells were incubated for 6–12 h at 37°C in […] and 5% carbon dioxide. Cells were then washed using a PBS solution and used for experiments after 24 h.
Currents were recorded using whole‐cell patch‐clamp using an Axopatch 1D amplifier. Cells were placed in a recording chamber filled with an external medium composed of 145 mM, NaCl, 2.5 mM KCl, 3 mM MgCl2, 1 mM CaCl2 and 10 mM HEPES (pH to 7.4, using NaOH). The internal medium used in the glass pipette comprised 150 mM KCl, 3 mM MgCl2, 5 mM (or 0.1 mM) EGTA and 10 mM HEPES (pH to 7.4, using KOH). GI‐530159 was applied by bath perfusion. Currents were recorded and analysed using pCLAMP 10.2 software Microsoft Excel. The voltage protocol used for recording current through K2P channels was as previously described (Veale and Mathie, 2016). For analysis, we measured the current difference between the −80 and −40 mV steps.
(In general: The patch-clamp technique gives a direct electrical read-out from membranes.)

The next assay concerns the target NaV1.2 (Homo sapiens, UniProt Q99250). Put plainly: Sodium channel selectivity, NaV1.2. Format: cell-based. Conditions: read-out: EC50 against NaV1.2.
Assay [1] addresses T2, human TREK1 single channels (Homo sapiens, UniProt O95069).
T2 construct: expressed in transfected cells
Put plainly: Single-channel recording, excised inside-out patches from HEK293 cells. Format: biochemical. Conditions: 10 μM on intracellular side, +60 mV. How it is done: Human TREK1 single channels were recorded in excised inside‐out membrane patches using an Axopatch 200B patch‐clamp amplifier and pCLAMP 10 software. Inside‐out membrane patches were excised from HEK293 cells expressing human TREK1 channels. Sylguard® 184‐coated glass pipettes with resistance around 10–15 MΩ were used. Pipette and bath compositions for inside‐out patches were opposite to those used in voltage‐clamp, that is, the pipette solution on the extracellular face of the channels contained 130 mM K and the bath solution on the intracellular face of the channel contained 4.7 mM K. Channel activities were recorded at +60 mV. The action of a hTREK1 opener was tested by addition to the intracellular solution. Single‐channel records were filtered with an eight‐pole Bessel filter (model LHBF‐48X, npi electronic GmbH, Tamm, Germany) at a corner frequency (fc) of 2 kHz and acquired using a DigiData 1440A interface and pCLAMP 10 software at a sampling rate of 20 kHz. Single‐channel traces were generated without further filtering.

Structures are written as SMILES.

T2 sequence (O95069 whole entry): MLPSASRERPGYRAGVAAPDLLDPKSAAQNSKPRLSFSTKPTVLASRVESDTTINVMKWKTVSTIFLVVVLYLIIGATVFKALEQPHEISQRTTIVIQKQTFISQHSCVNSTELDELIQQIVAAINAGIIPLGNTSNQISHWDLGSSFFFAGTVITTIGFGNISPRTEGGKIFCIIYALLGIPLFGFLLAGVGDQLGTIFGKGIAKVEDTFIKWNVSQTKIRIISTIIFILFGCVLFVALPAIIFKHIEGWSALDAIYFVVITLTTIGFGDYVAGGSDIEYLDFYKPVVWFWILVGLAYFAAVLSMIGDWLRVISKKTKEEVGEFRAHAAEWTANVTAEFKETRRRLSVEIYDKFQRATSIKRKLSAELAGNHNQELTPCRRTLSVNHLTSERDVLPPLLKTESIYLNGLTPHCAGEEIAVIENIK
Sequence of NaV1.7 (Q15858 whole entry): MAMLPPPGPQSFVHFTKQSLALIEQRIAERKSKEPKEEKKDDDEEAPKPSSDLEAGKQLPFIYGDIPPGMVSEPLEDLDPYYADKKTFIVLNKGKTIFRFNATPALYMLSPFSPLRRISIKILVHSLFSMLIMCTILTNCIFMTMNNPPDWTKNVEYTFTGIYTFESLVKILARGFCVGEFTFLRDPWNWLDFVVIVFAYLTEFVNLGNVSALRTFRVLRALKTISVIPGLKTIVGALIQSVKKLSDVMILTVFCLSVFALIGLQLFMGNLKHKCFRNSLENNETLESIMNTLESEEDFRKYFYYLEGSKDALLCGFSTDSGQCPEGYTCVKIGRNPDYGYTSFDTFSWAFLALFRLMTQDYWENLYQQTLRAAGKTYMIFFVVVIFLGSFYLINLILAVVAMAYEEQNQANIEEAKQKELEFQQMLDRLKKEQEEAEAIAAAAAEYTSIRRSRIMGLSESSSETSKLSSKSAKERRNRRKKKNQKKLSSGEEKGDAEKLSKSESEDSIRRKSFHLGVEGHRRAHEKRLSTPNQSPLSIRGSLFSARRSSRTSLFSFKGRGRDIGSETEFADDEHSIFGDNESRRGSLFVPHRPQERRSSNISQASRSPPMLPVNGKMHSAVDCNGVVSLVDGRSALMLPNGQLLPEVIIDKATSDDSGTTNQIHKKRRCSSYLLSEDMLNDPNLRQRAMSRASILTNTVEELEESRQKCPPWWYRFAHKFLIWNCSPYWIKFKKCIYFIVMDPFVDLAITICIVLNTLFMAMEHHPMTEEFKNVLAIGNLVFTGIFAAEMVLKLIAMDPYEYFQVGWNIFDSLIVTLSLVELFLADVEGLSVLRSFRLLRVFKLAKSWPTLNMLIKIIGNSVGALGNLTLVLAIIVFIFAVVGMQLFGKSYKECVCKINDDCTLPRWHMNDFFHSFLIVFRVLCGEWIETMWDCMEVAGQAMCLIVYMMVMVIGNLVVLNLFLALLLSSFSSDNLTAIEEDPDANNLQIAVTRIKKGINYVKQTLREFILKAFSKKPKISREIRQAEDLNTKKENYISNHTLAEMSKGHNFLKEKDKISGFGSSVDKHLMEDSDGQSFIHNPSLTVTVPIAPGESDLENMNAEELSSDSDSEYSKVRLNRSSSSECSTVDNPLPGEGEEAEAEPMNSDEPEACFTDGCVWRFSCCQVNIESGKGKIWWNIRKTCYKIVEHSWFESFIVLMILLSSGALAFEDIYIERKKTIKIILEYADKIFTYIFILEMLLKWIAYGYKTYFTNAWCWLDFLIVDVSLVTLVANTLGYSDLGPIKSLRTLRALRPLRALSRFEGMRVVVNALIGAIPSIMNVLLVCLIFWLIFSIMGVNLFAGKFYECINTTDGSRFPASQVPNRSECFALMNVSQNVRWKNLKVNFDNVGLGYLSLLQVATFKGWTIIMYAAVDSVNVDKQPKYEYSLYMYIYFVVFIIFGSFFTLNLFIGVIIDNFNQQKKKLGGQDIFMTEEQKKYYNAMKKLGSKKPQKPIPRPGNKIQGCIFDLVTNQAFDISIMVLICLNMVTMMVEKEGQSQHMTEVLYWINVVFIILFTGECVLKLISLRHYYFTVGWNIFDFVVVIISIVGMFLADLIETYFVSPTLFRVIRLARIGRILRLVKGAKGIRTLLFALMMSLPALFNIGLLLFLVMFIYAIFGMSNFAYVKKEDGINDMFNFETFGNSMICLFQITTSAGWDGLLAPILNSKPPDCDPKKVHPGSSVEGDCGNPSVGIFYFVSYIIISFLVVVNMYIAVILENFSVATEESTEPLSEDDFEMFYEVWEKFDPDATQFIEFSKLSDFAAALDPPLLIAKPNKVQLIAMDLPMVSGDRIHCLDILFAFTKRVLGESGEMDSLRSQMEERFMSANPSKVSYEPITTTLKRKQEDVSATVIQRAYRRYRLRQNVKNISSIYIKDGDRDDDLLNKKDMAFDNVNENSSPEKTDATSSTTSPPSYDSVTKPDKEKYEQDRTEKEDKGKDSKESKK
Sequence of NaV1.2 (Q99250 whole entry): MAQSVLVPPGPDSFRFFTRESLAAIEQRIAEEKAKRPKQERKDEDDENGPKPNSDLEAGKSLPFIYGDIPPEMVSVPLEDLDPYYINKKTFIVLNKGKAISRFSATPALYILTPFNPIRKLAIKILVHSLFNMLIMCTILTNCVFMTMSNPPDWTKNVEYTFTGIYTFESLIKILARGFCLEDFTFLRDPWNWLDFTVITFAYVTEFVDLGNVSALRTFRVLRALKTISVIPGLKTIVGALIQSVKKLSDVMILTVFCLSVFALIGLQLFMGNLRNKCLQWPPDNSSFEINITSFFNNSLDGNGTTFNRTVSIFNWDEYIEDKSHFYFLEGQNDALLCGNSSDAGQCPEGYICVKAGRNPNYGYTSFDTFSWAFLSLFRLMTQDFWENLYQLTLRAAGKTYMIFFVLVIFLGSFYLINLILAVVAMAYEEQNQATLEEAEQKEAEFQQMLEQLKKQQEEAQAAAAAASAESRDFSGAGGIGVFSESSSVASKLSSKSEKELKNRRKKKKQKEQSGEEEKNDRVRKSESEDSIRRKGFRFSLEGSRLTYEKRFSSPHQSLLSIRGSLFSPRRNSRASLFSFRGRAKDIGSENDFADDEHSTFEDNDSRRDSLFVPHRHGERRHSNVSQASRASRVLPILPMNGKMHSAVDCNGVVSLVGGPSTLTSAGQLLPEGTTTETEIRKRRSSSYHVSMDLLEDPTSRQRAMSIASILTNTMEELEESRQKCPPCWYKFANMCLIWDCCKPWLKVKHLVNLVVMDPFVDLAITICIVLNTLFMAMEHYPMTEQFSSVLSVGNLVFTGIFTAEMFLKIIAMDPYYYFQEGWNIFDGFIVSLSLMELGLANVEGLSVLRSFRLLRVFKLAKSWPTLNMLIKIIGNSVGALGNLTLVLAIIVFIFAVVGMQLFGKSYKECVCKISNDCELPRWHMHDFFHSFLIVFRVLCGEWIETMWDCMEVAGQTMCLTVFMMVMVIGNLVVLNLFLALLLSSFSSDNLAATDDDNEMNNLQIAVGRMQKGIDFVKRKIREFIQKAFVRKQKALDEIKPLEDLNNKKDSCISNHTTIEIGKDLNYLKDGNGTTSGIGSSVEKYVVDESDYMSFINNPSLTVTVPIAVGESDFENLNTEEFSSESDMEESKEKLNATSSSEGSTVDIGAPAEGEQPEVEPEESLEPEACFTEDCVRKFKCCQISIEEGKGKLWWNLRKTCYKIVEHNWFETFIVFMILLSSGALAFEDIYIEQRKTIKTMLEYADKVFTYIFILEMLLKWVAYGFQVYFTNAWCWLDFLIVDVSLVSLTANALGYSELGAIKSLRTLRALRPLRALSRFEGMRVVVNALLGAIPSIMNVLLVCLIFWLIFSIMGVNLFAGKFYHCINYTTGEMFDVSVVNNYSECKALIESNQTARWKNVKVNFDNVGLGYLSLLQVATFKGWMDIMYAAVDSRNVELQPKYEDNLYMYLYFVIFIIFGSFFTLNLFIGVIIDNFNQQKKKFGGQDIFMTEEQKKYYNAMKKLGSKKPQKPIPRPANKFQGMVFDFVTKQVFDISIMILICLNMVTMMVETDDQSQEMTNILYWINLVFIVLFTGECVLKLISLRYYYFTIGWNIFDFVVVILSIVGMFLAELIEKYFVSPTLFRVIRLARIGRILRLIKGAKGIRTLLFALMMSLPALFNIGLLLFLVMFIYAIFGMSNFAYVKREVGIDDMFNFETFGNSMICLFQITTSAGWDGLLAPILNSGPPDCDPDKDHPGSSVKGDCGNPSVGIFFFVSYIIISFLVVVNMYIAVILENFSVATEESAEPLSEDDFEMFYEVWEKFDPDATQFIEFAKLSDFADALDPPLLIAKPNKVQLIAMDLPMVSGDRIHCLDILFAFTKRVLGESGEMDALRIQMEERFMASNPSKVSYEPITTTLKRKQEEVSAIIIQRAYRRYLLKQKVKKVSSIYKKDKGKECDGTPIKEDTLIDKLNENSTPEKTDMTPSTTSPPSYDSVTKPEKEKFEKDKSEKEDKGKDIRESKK

As to `Nc1ccc(Oc2ccc(C(c3ccc(Oc4ccc(N)cc4)cc3)(C(F)(F)F)C(F)(F)F)cc2)cc1` [GI‐530159, 4,4′‐(hexafluoroisopropylidene)bis(p‐phenyleneoxy)dianiline], the EC50 at NaV1.7 and at NaV1.2 was over 100 µM throughout. For the same compound, the “enhancement of TRAAK current” value on hTRAAK (1 μM, tsA-201, n = 7) was found to be 2 ± 10%. Also, on hTRAAK (10 μM), the “effect on TRAAK channels” value is “no detectable effect”. Moreover, the single-channel current amplitude entry in assay [1] is recorded as “not altered”. The channel open probability in assay [1] (exemplar recording, 0.009 before application) is given as 0.025.
